{"source": "patent US20220175798A1", "about": "“COMPOSITIONS COMPRISING OXYGENATED CHOLESTEROL SULFATE AND AT LEAST ONE OF POLYALKYLENE GLYCOL, CARBOXYMETHYL CELLULOSE AND POLYOXYLGLYCERIDE” (Durect Corporation, priority 2016, published 2022)", "key": {"[1]": {"test": "Oral pharmacokinetics in HFD-fed Golden Syrian hamsters", "type": "in vivo", "source_text": "The subjects for the study were 40 Golden Syrian male hamsters. Two cohorts were provided with either regular diet (RD) or high fat diet (HFD) for 10 weeks. 25HC3 S treatment was initiated at the start of Week 11. Group 1 remained on a regular diet while HFD-fed hamsters were randomly divided into three treatment groups (Groups 2-4; Table 20).\nThe Vehicle was a solution of 0.5% (w/v) CMC and 0.05% (v/v) Tween-80 in water. Powdered 25HC3 S was constituted into the vehicle solution to result in drug concentrations of 2.5 and 10 mg/mL. The suspensions were homogenized for approximately 5 minutes being combined, with 10 second breaks every 30-40 seconds and swirled before dosing to maintain homogeneity. The formulated test article was prepared weekly and kept at room temperature.\nHamsters were treated with 25HC3 S by daily oral gavage for 6 weeks while maintained on RD or HFD. Each hamster received daily doses of 25HC3S or vehicle by oral gavage (N=10/group). There were two dose groups (Groups 3 and 4): 10 and 50 mg/kg, as specified in Table 20, with dose volumes of 4 and 5 mL/kg, respectively.\nFor pharmacokinetic (PK) analysis, blood was collected following the first 25HC3S dose. Whole blood samples were collected via the jugular vein at pre-dose, 0.5, 2, 4, 8, 12 hours (h) post dose from each hamster; however, the last blood collection may have been collected by terminal cardiac puncture with the animals deeply anesthetized by isoflurane. Blood samples were placed into tubes containing K2EDTA. The blood was gently mixed to assure distribution of the anti-coagulant and the resulting plasma samples underwent analyses to quantify 25HC3S levels."}, "[2]": {"test": "Ease of dispersion: appearance of suspension and sedimentation (visual inspection)", "type": "physicochemical", "conditions": "25 mg/mL in Vehicle PEG 3350 (without L-Methionine)", "procedure": "Two lots of 25HC3S sodium salt (Lot #A and Lot #B) were used. Lot #B was delumped through a 20 mesh screen. The drug substance was either used directly or further jet-milled, prior to the preparation of suspensions for the studies. A third lot of 25HC3 S sodium salt (Lot #C) was jet-milled first and then used directly or further passed through a 20 mesh screen prior to the studies. More than 10 vehicles were screened. Four mixing methods were evaluated: manual shaking (Mixing Method 1), manual shaking followed by sonication (Mixing Method 2) and homogenization with a sonic probe (Mixing Method 3) as well as mechanical shaking horizontally in a flat bed shaker (Mixing Method 4). Studies #1 to 13 combined vehicle screening, mixing methods and syringeability evaluation. The effect of drug concentrations on the syringeability was evaluated (Studies #10 and 11).\nWeigh approximately 10 to 100 mg each of 25HC3S into 2 mL vials. Add to each vial, 1 mL of vehicle. A total of 3 mixing methods were used to prepare the suspensions. Mixing Method 1: Each vial was manually shaken for 15 to 45 times. The suspension was inspected visually for sedimentation after stored at room temperature (RT) for one minute. […] Mixing Method 2: Each vial was manually shaken 30 times followed by sonication for 3 or 6 minutes for syringeability study. […]"}, "[3]": {"test": "Single SC injection PK study in Beagle dogs", "type": "in vivo", "conditions": "single SC dose 25 mg/kg", "procedure": "The subjects for the study were 5 male Beagle dogs (4-7 years of age; 8-11 kg). […] All animals were in healthy condition and admitted to the study.\nThe Vehicle was a solution of 3% (w/v) polyethylene glycol 3350, 0.3% (w/v) polysorbate 80, 0.7% (v/v) sodium chloride, 0.15% (w/v) L-methionine, 10 mM sodium phosphate buffer at pH 7.4 in water. 25HC3 S was mixed into the Vehicle solution to result in a drug concentration of 25 mg/mL. […] The formulated test article was used within 24 hours of constitution.\nEach dog received a single subcutaneous injection. The dose level of 25 mg/kg was administered in a dose volume of 1 mL/kg. Whole blood samples were collected via the jugular vein at pre-dose, 0.5, 1, 2, 4, 8, 12, 24, and 32 hours (h) post dose. Blood samples were placed into tubes containing K2EDTA. The blood was gently mixed to assure distribution of the anti-coagulant and the resulting plasma samples underwent analyses to quantify 25HC3S levels. […] Assessments included, but were not limited to, evidence of pain on injection, assessment of activity, posture, respiration, emesis, seizure, hydration status, injection site assessment."}}, "data": [{"molecule": "C[C@H](CCCC(C)(C)O)[C@H]1CC[C@H]2[C@@H]3CC=C4C[C@@H](OS(=O)(=O)[O-])CC[C@]4(C)[C@H]3CC[C@]12C.[Na+]", "note": "[Formulation 25HC3S, 5-cholesten-3, 25-diol, 3-sulfate]", "values": [{"measurement": "dose-normalized AUC", "setting": "[1]; 10 mg/kg oral", "value": 195, "unit": "ng·h/mL/mg"}, {"measurement": "normalized Cmax", "setting": "[1]; 10 mg/kg oral", "value": 32.2, "unit": "ng/mL/mg"}, {"measurement": "normalized Cmax", "setting": "[1]; 50 mg/kg oral", "value": "only half of the 10 mg/kg dose"}, {"measurement": "mean half-life", "setting": "[1]; first oral dose", "value": 3, "unit": "h"}, {"measurement": "time of mean maximum plasma concentration", "setting": "[1]; first oral dose, both doses (10 and 50 mg/kg)", "value": 0.5, "unit": "h"}, {"measurement": "dispersion", "setting": "[2]; flat bed shaker 100 rpm up to 50 minutes (Study #12)", "value": "did not disperse well"}, {"measurement": "dispersion", "setting": "[2]; flat bed shaker 200 rpm up to 45 minutes (Study #13)", "value": "dispersed well"}, {"measurement": "clinical signs", "setting": "[3]", "value": "no observable clinical signs"}, {"measurement": "mean time to maximum plasma drug concentration", "setting": "[3]; PEG 3350 suspension 25 mg/mL", "value": 23.2, "unit": "h"}, {"measurement": "mean concentration at 32 h", "setting": "[3]; plasma", "value": 157.6, "unit": "ng/mL"}]}]}
